In ChEMBL document CHEMBL1148763 (J Med Chem, 2007):

Molecular target: T1, Dihydrofolate reductase (Bacillus anthracis, UniProt Q81R22)
T1 sequence (Q81R22 whole entry): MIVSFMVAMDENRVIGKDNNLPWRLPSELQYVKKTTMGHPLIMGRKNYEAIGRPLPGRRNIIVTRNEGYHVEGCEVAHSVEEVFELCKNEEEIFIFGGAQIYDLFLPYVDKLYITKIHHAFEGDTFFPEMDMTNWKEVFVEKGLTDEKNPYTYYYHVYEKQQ
Assay: Inhibition of Bacillus anthracis DHFR

With `CN(c1ccc(C(=O)NC(CCC(=O)O)C(=O)O)cc1)c1cnc2nc(N)nc(N)c2n1` (stereo unspecified) as the molecule, how does the IC50 read?
The IC50 was 15 nM.
